Test results from patent US20250049036A1 (priority 2021, published 2025).

How the values were obtained:
Corynespora cassiicola [1] = assay: Corynespora cassiicola (leaf spot of tomato) mycelial radial growth on potato dextrose agar; format: cell-based; settings: 168 h, 25° C., seven days, read-out: control compared to the untreated check
Protocol: (§1) The compounds were dissolved in 0.3% dimethyl sulfoxide and then added to potato dextrose agar medium just prior to dispensing it into petri dishes. 5 mL medium, with the compound in the desired concentration, was dispensed into 60 mm sterile petri-plates. After solidification, each plate was seeded with a 5 mm size mycelial disc taken from the periphery of an actively growing virulent culture plate. The plates were incubated in growth chambers at 25° C. temperature and 70% relative humidity for seven days and the radial growth was measured and compared to the one of the untreated control.

Alternaria solani [2] = assay: Alternaria solani (early blight of tomato/potato) mycelial radial growth on potato dextrose agar; format: cell-based; settings: 168 h, 25° C., seven days, read-out: control compared to the untreated check
Protocol: as §1, with “60%” for “70%”

Colletotrichum capsici = Colletotrichum capsici (anthracnose) mycelial radial growth on potato dextrose agar; format: cell-based; settings: Colletotrichum truncatum, 168 h, 25° C., seven days, read-out: control compared to the untreated check
How it was run: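 Compounds in 0.3% DMSO were mixed into potato dextrose agar, and each plate was seeded with a 5 mm mycelial disc from an actively growing culture. Plates were incubated at 25° C and 60% relative humidity for seven days. Radial growth was compared with untreated control.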

Pyricularia oryzae = assay: microbe, parasite or virus in culture; format: cell-based; settings: 168 h, read-out: control compared to the untreated check
Phakopsora pachyrhizi = Phakopsora pachyrhizi test on soybean, preventive, greenhouse; format: in vivo; settings: preventive spray on soybean, inoculated one day after treatment, read-out: control (efficacy, disease severity) compared to the untreated check
How it was run: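 Greenhouse-grown young soybean plants were sprayed with compound (2% DMSO/acetone, emulsifier in water) at the stated rate. One day later they were inoculated with 2×10^5 P. pachyrhizi inoculum and held at 22-24 °C, 80-90% relative humidity for disease development.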

Alternaria solani [3] = assay: Alternaria solani test in tomato, preventive, greenhouse; format: in vivo; settings: preventive spray on tomato, inoculated one day after treatment, read-out: control (efficacy, disease severity) compared to the untreated check
Botrytis cinerea = Botrytis cinerea test on tomato, preventive, greenhouse; format: in vivo; settings: preventive spray on bean/chili plants (heading: tomato), inoculated one day after treatment, read-out: control (efficacy, disease severity) compared to the untreated check
Fusarium culmorum = Fusarium culmorum test on wheat, preventive, greenhouse; format: in vivo; settings: preventive spray on wheat, inoculated one day after treatment, read-out: control (efficacy, disease severity) compared to the untreated check
Protocol: The respective compound was dissolved in 2% dimethyl sulfoxide/acetone and then mixed with water containing an emulsifier to a calibrated spray volume of 30 mL. Each spray solution was poured into a spray bottle for further application.
(§2) To test the preventive activity of a compound, healthy young wheat plants, raised in the greenhouse, were sprayed with the active compound preparation at the stated application rate inside the spray cabinets using hollow cone nozzles. One day after the treatment, the plants were inoculated with a spore suspension containing 2×10^6 Fusarium culmorum inoculum. The inoculated plants were then kept in a greenhouse chamber at 24° C. temperature and 80-90% relative humidity for disease expression.
(§3) A visual assessment of the compound's performance was carried out by rating the disease severity (0 100% scale) on treated plants 3, 7, 10 and 15 days after application. Efficacy (% control) of the compound was calculated by comparing the disease rating in the treatment with the one of the untreated control. The treated plants were also assessed for plant damage by recording symptoms like necrosis, chlorosis and stunting.

Corynespora cassiicola [4] = assay: Corynespora cassiicola test on tomato, preventive, greenhouse; format: in vivo; settings: 500 ppm; preventive spray on tomato, inoculated one day after treatment
Protocol: The respective compound was dissolved in 2% dimethyl sulfoxide/acetone and then mixed with water containing an emulsifier to the calibrated spray volume of 30 mL. Each spray solution was poured into a spray bottle for further application.
as §2, with “tomato” for “wheat”, “after” for “after the”, “2.6×10^6 Corynespora cassiicola” for “2×10^6 Fusarium culmorum”, “22-24°” for “24°”, “90-95%” for “80-90%”
as §3

Venturia Inequalis = assay: Venturia inequalis (VENTIN) spore growth inhibition in liquid medium, 96-well microtiter plate, OD 600; format: cell-based; settings: spore suspension in PDB liquid medium, 18° C., 15-18 days, OD at 600, read-out: control compared to the untreated check
How it was run: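 Venturia inequalis spores (10^5 spores/ml suspension) were grown in potato dextrose broth with test compounds dissolved in DMSO, mixing equal volumes of compound solution and spore suspension. Plates were incubated at 18 °C for 15–18 days. Growth was read as OD600 and converted to percent inhibition.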

Phytophthora infestans = assay: whole plant or invertebrate; format: in vivo, Phytophthora infestans on tomato; settings: in Solanum lycopersicum, read-out: control (efficacy, disease severity) compared to the untreated check

CC(C)CC(C)(Cc1ccccc1)NC(=O)c1cnc2c(ccn2C)c1 (stereo not shown) [Compound 2, N-(2,4-dimethyl-1-phenylpentan-2-yl)-1-methyl-1H-pyrrolo[2,3-b]pyridine-5-carboxamide]
≥ 70%: inhibition of growth at 300 ppm (Corynespora cassiicola [1]) | inhibition of growth at 300 ppm (Alternaria solani [2]) | inhibition of growth at 300 ppm (Colletotrichum capsici) | inhibition of growth at 300 ppm (Pyricularia oryzae) | pest or weed control at 500 ppm (Phakopsora pachyrhizi) | pest or weed control at 500 ppm (Alternaria solani [3]) | pest or weed control at 500 ppm (Botrytis cinerea)

CC(c1ccccc1F)C(C)(C)NC(=O)c1cnc2c(c1)c(Cl)cn2C (stereo not shown) [Compound 64, 3-chloro-N-(3-(2-fluorophenyl)-2-methylbutan-2-yl)-1-methyl-1H-pyrrolo[2,3-b]pyridine-5-carboxamide]
≥ 70%: pest or weed control at 500 ppm (Fusarium culmorum) | control (efficacy, disease severity) compared to the untreated check (Corynespora cassiicola [4]) | inhibition of growth at 300 ppm (Venturia Inequalis) | inhibition of growth at 300 ppm (Pyricularia oryzae) | pest or weed control at 500 ppm (Phytophthora infestans) | pest or weed control at 500 ppm (Phakopsora pachyrhizi)

C=C(C)CC(C)(COc1ccc(F)cc1)NC(=O)c1cnc2c(ccn2C)c1 (stereo not shown) [Compound 121, N-(1-(4-fluorophenoxy)-2,4-dimethylpent-4-en-2-yl)-1-methyl-1H-pyrrolo[2,3-b]pyridine-5-carboxamide]
≥ 70%: inhibition of growth at 300 ppm (Corynespora cassiicola [1]) | pest or weed control at 500 ppm (Fusarium culmorum) | inhibition of growth at 300 ppm (Colletotrichum capsici)
